Data on eleven compounds can be found in publication PMC3726007 (Journal of medicinal chemistry, 2009).

“Also recorded” adds a separate entry of the source. Structures can show the parent of a compound that is named as a salt.

Data set [1] deals with α4β2* nicotinic acetylcholine receptors (nAChRs). The note with it: cited from earlier work.
The test system of data set [2] is methamphetamine self-administration. The note with it: animal models; cited from earlier work.
Data set [3] addresses VMAT2 (Rattus norvegicus, UniProt Q01827). Kind of data set: [3H]-DA uptake inhibition assay in isolated synaptic vesicles. The note with it: for fold more potent in inhibiting [3H]-DA uptake than in binding to the DTBZ binding site: uptake vs DTBZ binding; for fold less potent in [3H]-DA uptake inhibition than comparator: 7 vs 2, 26 vs 25; for fold more potent in [3H]-DA uptake inhibition than S-configured analogs: 18 and 19 vs 14 and 15.

The target of data set [4] is DTBZ binding site on VMAT2 (Rattus norvegicus, UniProt Q01827). As to the kind of experiment: [3H]DTBZ binding assay in rat brain synaptic vesicles. As to conditions: for fold less potent at DTBZ binding site than comparator: 7 vs 2, 26 vs 25.
The nature of data set [5]: water solubility. The class given is physicochemical. As to conditions: qualitative statement.

Chain of VMAT2 (Q01827 whole entry): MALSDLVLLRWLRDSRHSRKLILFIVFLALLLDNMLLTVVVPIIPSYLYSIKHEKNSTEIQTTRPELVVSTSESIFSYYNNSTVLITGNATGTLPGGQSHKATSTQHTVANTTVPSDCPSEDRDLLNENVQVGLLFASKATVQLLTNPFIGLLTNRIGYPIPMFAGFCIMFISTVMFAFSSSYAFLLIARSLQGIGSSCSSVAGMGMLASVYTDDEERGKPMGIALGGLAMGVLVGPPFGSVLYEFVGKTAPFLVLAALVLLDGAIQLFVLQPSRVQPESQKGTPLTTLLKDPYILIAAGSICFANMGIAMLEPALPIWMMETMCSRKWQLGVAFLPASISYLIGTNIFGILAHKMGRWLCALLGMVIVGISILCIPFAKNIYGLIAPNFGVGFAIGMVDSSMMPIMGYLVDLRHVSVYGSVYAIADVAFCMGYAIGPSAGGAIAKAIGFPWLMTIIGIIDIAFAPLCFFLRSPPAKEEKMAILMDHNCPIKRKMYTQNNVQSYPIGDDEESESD
Chain of DTBZ binding site on VMAT2 (Q01827 whole entry): as above

As for `CN1[C@@H](CC(=O)c2ccccc2)CCC[C@H]1C[C@H](O)c1ccccc1` [Compound 1, lobeline], in data set [1], the “affinity for α4β2* nAChRs” value is given as “high potency”.
On to `CN1[C@@H](CCc2ccccc2)CCC[C@H]1CCc1ccccc1` [Compound 2, cis-N-methyl-2,6-diphenethylpiperidine], for which, in data set [2], the effect on self-administration result was “decreases methamphetamine self-administration; also recorded: does not itself support self-administration”. In addition, the “affinity for α4β2* nAChRs” value in data set [1] is recorded as “little affinity”.
On to `c1ccc(CC[C@H]2CCC[C@@H](CCc3ccccc3)N2)cc1` [Compound 3, reference compound], for which, in data set [3], the “fold more potent in inhibiting [3H]-DA uptake than in binding to the DTBZ binding site” value (“fold more potent in inhibiting” for short) is given as “about 100 fold”.
`c1ccc(CC[C@@H]2CC[C@H](CCc3ccccc3)N2)cc1` [Compound 6, cis-2,5-Di-(2-phenethyl)-pyrrolidine hydrochloride]: the “fold more potent in inhibiting” value in data set [3] is given as “about 100 fold”.
Turning to `CN1[C@H](CCc2ccccc2)CC[C@@H]1CCc1ccccc1` [Compound 7, 1-Methyl-cis-2,5-di-(2-phenethyl)-pyrrolidine hydrochloride], the “fold less potent at DTBZ binding site than comparator” value in data set [4] is “about 10 fold”. In data set [3], the “fold less potent in [3H]-DA uptake inhibition than comparator” value came out at 10 fold and the “fold more potent in inhibiting” value is “about 30 fold”.
Take `c1ccc(CC[C@H]2CC[C@H](CCc3ccccc3)N2)cc1` [Compound 10, (2S,5S)-di-(2-phenethyl)-pyrrolidine hydrochloride]: the “fold more potent at DTBZ binding site than N-methyl derivative” value in data set [4] (10 vs 11) is “about 10 fold”.
With `OC[C@@H](c1ccccc1)N1[C@H](CCc2ccccc2)CC[C@@H]1CCc1ccccc1` [Compound 18, (2′R)-2-(2S,5R)-2,5-Di-(2-phenethyl)-tetrahydro-1H-1-pyrrolyl-2-phenylethan-1-ol], the “fold more potent in [3H]-DA uptake inhibition than S-configured analogs” value in data set [3] is “about 10 fold”.
Consider `OC[C@@H](c1ccccc1)N1[C@@H](CCc2ccccc2)CC[C@@H]1CCc1ccccc1` [Compound 19, (2′R)-2-(2S,5S)-2,5-Di(2-phenethyl)-tetrahydro-1H-1-pyrrolyl-2-phenylethan-1-ol], for which, in data set [3], the “fold more potent in [3H]-DA uptake inhibition than S-configured analogs” value was “about 10 fold”.
Regarding `c1ccc(C[C@H]2CC[C@@H](Cc3ccccc3)N2)cc1` [Compound 22, cis-2,5-Di(2-benzyl)-pyrrolidine hydrochloride], the water solubility entry in data set [5] is recorded as “water-soluble”.
As to `c1ccc(CCC[C@@H]2CC[C@H](CCCc3ccccc3)N2)cc1` [Compound 25, Cis-2,5-di(3-phenylpropyl)-pyrrolidine hydrochloride], the “fold more potent in inhibiting” value in data set [3] is given as “about 20 fold”.
For the compound `CN1[C@H](CCCc2ccccc2)CC[C@@H]1CCCc1ccccc1` [Compound 26, 1-Methyl-cis-2,5-di(3-phenylpropyl)-pyrrolidine hydrochloride], the “fold less potent at DTBZ binding site than comparator” value in data set [4] amounted to 10 fold. In addition, in data set [3], the “fold less potent in [3H]-DA uptake inhibition than comparator” value was “about 10 fold” and the “fold more potent in inhibiting” value was “about 20 fold”.
